What was measured:
Assay type in all cases: in vivo, humans
[1] = system: moderate to severe plaque psoriasis; assay: Phase II placebo-controlled clinical study, Lattice System Global Psoriasis Score (LS-GPS); conditions: for Improvement by 2 categories, number of patients / Improvement by 2 categories, percentage of patients / Improvement to clear/almost clear, number of patients / Improvement to clear/almost clear, percentage of patients / Improvement to clear/almost clear/mild, number of patients / Improvement to clear/almost clear/mild, percentage of patients: LS-GPS, 18 weeks
Excerpt: The Lattice System Global Psoriasis Score (LS-GPS) developed by Charles Ellis, M. D. is a physician's global assessment tool that provides an entire body assessment that combines total body surface area (BSA) involvement with average plaque qualities. The resulting LS-GPS is one of eight discrete values ranging from “Clear” to “Very Severe”.
According to the LS-GPS score the definitions are: Clear • 0% Body Surface Area (BSA) and no elevation, erythema or scale. Almost Clear: • 1-3% BSA, mild elevation, erythema or scale; or • 4-9% BSA, mild erythema or mild scale Mild: • 1-3% BSA, moderate or marked elevation, erythema or scale; or • 4-9% BSA, mild elevation or moderate erythema or moderate scale; or • 10-20% BSA, mild erythema or mild/moderate scale Mild to Moderate: • 4-9% BSA, moderate elevation or marked scale; or • 10-20% BSA, moderate erythema; or • 21-29% BSA, mild erythema or mild/moderate scale Moderate: • 4-9% BSA, marked elevation or marked erythema; or • 10-20% BSA, mild elevation; or • 30-50% BSA, mild erythema or mild scale Moderate to Severe: • 10-20% BSA, moderate elevation or marked scale; or • 21-29% mild elevation or moderate erythema; or • 51+% BSA, mild erythema or mild scale Severe: • 10-20% BSA, marked elevation or marked erythema; or • 21-29% BSA, moderate/marked elevation or marked erythema or marked scale; or • 30-50% BSA, mild elevation or moderate erythema or moderate scale Very Severe: • 30-50% BSA, moderate/marked elevation or marked erythema or marked scale; or • 51+% BSA, any elevation or moderate/marked erythema or moderate/marked scale.
(§1) A phase II, multi-center, randomized, double-blind, placebo-controlled study involving 186 subjects compared the safety and efficacy of three doses (2 mg, 4 mg, and 8 mg) of rosiglitazone maleate (RSG) to placebo for eighteen weeks with two weeks follow-up in the treatment of moderate to severe plaque psoriasis. This study was designed to provide an assessment of the risk to benefit profile of three dose levels of RSG in subjects with psoriasis. 186 patients were enrolled and 108 patients completed the study. All patients were in the moderate to very severe category, although of the patients starting the study only 11 were moderate and the rest were severe or very severe.
(§2) Efficacy measurements included the Lattice System Global Psoriasis Score (LS-GPS) and the Psoriasis Area and Severity Index (PASI).
“Observed” refers to data on patients who completed the trial. “LOCF” (last observation carried forward) includes data on patients who withdrew from the trial for some reason and includes their last observation in the data. The percentage is out of the total number of initial participants in the trial.

[2] = system: moderate to severe plaque psoriasis; assay: Phase II placebo-controlled clinical study, Psoriasis Area and Severity Index (PASI)
Description: The Psoriasis Area Severity Index (PASI) score was developed by Fredeniksson and Petersson in 1978 ( Frederiksson T and Petersson U. Severe psoriasis-oral therapy with a new retinoid. Dermatologica. 1978;157:238-44). According to our preferred method of determining the PASI score,four main body areas are assessed: the head (h), the upper extremities (u) the trunk (t), and lower extremities (l) corresponding to 10; 20, 30 and 40% of the total body surface area, respectively. The buttocks are counted as part of the legs, the axilla and groin count as part of the trunk and the neck as part of the head. The area of psoriatic involvement of these four main areas (Ah, At, Au, Al) is given a numeric score for the percent involved by psoriasis: 1=1-9%; 2=10-29%; 3=30-49%; 4=50-69%; 5=70-89% and 6=90-100%. In order to evaluate the severity of the psoriatic lesions three target symptoms, erythema (E), thickness/indurabon (I), and desquamation/scaling (D) will be assessed according to a scale of 0-4, where 4 represents the severest possible involvement. In the case of i.e., erythema, 0=No symptoms; 1=slight erythema, 2=moderate erythema; 3=marked erythema, and 4=very marked erythema. The PASI score (0-72) is then calculated, from the following formula: […]
The PASI score varies in steps of 0.1 units from 0.0 to 72.0. Higher PASI scores indicate higher degrees of severity. The last mentioned score represents complete erythema of the severest possible degree, while 0.0 means no psoriatic lesions at all. Generally severe psoriasis is defined by a PASI score of 20 or more.
as §1, §2

subjects with psoriasis = assay: Phase II placebo-controlled clinical study, safety
Description: as §1

[3] = system: moderate to severe plaque psoriasis; assay: Phase II placebo-controlled clinical study, overall efficacy, onset of effect and patient photographs
Description: FIGS. 3, 4, 5 and 6: photographs of the back of a patient receiving 2 mg rosiglitazone at baseline and after 12 weeks, 18 weeks and follow-up (week 20).
FIGS. 7, 8 and 9: photographs of the lower leg of a patient receiving 8 mg rosiglitazone at baseline and after 12 weeks and 18 weeks.
as §1, §2

[4] = Observed (completers), 2 mg oral daily
[5] = Observed (completers), 4 mg oral daily
[6] = Observed (completers), 8 mg oral daily
[7] = Week 12, 2 mg and 8 mg groups compared to placebo
[8] = 18 weeks of oral, daily treatment, 2, 4, 8 mg

Compound: CN(CCOc1ccc(CC2SC(=O)NC2=O)cc1)c1ccccn1 (stereo not drawn) [RSG, 5-[4-[2-(N-methyl-N-(2-pyridyl)amino)ethoxy]benzyl]thiazolidine-2,4-dione]
- LS-GPS results (FIG. 1, percentage of completed patients clear, almost clear or mild) ([1]; 8 mg group at 18 weeks): particularly good
- Improvement by 2 categories, number of patients ([1]; LOCF, 2 mg oral daily): 12
- Improvement by 2 categories, percentage of patients ([1]; LOCF, 2 mg oral daily): 24%
- Improvement to clear/almost clear, number of patients ([1]; LOCF, 2 mg oral daily): 2
- Improvement to clear/almost clear, percentage of patients ([1]; LOCF, 2 mg oral daily): 4%
- Improvement to clear/almost clear/mild, number of patients ([1]; LOCF, 2 mg oral daily): 5
- Improvement to clear/almost clear/mild, percentage of patients ([1]; LOCF, 2 mg oral daily): 10%
- Improvement by 2 categories, number of patients ([1]; LOCF, 4 mg oral daily): 6
- Improvement by 2 categories, percentage of patients ([1]; LOCF, 4 mg oral daily): 14%
- Improvement to clear/almost clear, number of patients ([1]; LOCF, 4 mg oral daily): 1
- Improvement to clear/almost clear, percentage of patients ([1]; LOCF, 4 mg oral daily): 2%
- Improvement to clear/almost clear/mild, number of patients ([1]; LOCF, 4 mg oral daily): 4
- Improvement to clear/almost clear/mild, percentage of patients ([1]; LOCF, 4 mg oral daily): 9%
- Improvement by 2 categories, number of patients ([1]; LOCF, 8 mg oral daily): 11
- Improvement by 2 categories, percentage of patients ([1]; LOCF, 8 mg oral daily): 25%
- Improvement to clear/almost clear, number of patients ([1]; LOCF, 8 mg oral daily): 3
- Improvement to clear/almost clear, percentage of patients ([1]; LOCF, 8 mg oral daily): 7%
- Improvement to clear/almost clear/mild, number of patients ([1]; LOCF, 8 mg oral daily): 11
- Improvement to clear/almost clear/mild, percentage of patients ([1]; LOCF, 8 mg oral daily): 25%
- Improvement by 2 categories, number of patients [1, 4]: 11
- Improvement by 2 categories, percentage of patients [1, 4]: 28%
- Improvement to clear/almost clear, number of patients [1, 4]: 2
- Improvement to clear/almost clear, percentage of patients [1, 4]: 5%
- Improvement to clear/almost clear/mild, number of patients [1, 4]: 5
- Improvement to clear/almost clear/mild, percentage of patients [1, 4]: 13%
- Improvement by 2 categories, number of patients [1, 5]: 4
- Improvement by 2 categories, percentage of patients [1, 5]: 20%
- Improvement to clear/almost clear, number of patients [1, 5]: 1
- Improvement to clear/almost clear, percentage of patients [1, 5]: 5%
- Improvement to clear/almost clear/mild, number of patients [1, 5]: 2
- Improvement to clear/almost clear/mild, percentage of patients [1, 5]: 10%
- Improvement by 2 categories, number of patients [1, 6]: 10
- Improvement by 2 categories, percentage of patients [1, 6]: 37%
- Improvement to clear/almost clear, number of patients [1, 6]: 3
- Improvement to clear/almost clear, percentage of patients [1, 6]: 11%
- Improvement to clear/almost clear/mild, number of patients [1, 6]: 10
- Improvement to clear/almost clear/mild, percentage of patients [1, 6]: 37%
- LS-GPS summary [1, 7]: improvements
- subjects who achieved Clear/Almost Clear in the LS-GPS (primary endpoint) ([1]; Week 12, in each of the RSG groups (2 mg, 4 mg, 8 mg), none in placebo): one
- distribution of the LS-GPS ([1]; Week 18, 2 mg group): statistically significant
- other LS-GPS endpoints ([1]; Week 18, 8 mg dose): comparable efficacy with the 2 mg dose
- odds for successful treatment (Clear/Almost Clear/Mild LS-GPS) relative to placebo group ([1]; Week 18, 8 mg group): ~5 times
- proportion of subjects who achieved Clear/Almost Clear/Mild, significance ([1]; Week 18, 8 mg group vs placebo): achieved statistical significance
- subjects who achieved an improvement of Clear/Almost Clear ([1]; Week 18, all RSG groups together, none on placebo): six
- PASI results (FIG. 2, change from baseline, LOCF) ([2]; 2 and 8 mg group at 12 weeks): particularly good
- mean percent change in PASI ([2]; Week 12, 2 mg and 8 mg group): statistically significant
- proportion of subjects who achieved a 50% improvement according the PASI [2, 7]: improvements
- proportion of subjects who achieved a 75% improvement according the PASI [2, 7]: improvements
- PASI mean percent change ([2]; Week 18, 2 mg group): statistically significant
- other PASI endpoints ([2]; Week 18, 8 mg dose): comparable efficacy with the 2 mg dose
- improvements in mean percent change in PASI total scores during follow-up period ([2]; two weeks follow-up after 18 weeks of treatment, all treatment groups): maintained
- safety findings (subjects with psoriasis; [8]): no unexpected safety findings
- safety profile (subjects with psoriasis; [8]): comparable across treatment groups
- adverse events (subjects with psoriasis; all doses): comparable with placebo
- tolerability (subjects with psoriasis; all doses): well tolerated
- efficacy results versus placebo ([3]; 4 mg group, high dropout rate (24/44)): did not separate appreciably from placebo
- clinical effects ([3]; Week 12 and Week 18, 2 mg and 8 mg treatment groups): Clinically meaningful effects
- efficacy in photographs of a patient's back (FIGS. 3-6) ([3]; one patient on 2 mg, baseline, 12 weeks, 18 weeks, follow-up week 20): good efficacy
- efficacy in photographs of a patient's lower leg (FIGS. 7-9) ([3]; one patient on 8 mg, baseline, 12 weeks, 18 weeks): good efficacy
- onset of action according to most measures ([3]; oral, 2 to 8 mg/day): around 2 weeks
- onset of activity ([3]; oral, 2 to 8 mg/day): 6-8 weeks
- time to noticeably beneficial effects ([3]; oral, 2 to 8 mg/day): 12-18 weeks
- time of peak effect (other endpoints) ([3]; study only 18 weeks, peak efficacy may not have been observed): 18 weeks

From patent US20070086967A1, “Treatment of psoriasis with rosiglitazone” (priority 2003, published 2007)
